Source: patent publication US4602927A, “4-alkylimidazole derivatives and their use as nitrification inhibitors” (BASF Aktiengesellschaft, priority 1983, dated 1986)

System: nitrification
Test: % inhibition of nitrification in soil (ammonium sulfate remaining in loamy sandy soil, Nessler reagent, 420 nm)
Settings: 1 ppm based on moist soil, 50% of maximum water capacity, 28 days at 21° C., 220 mg ammonium sulfate per 200 g soil, versus untreated soil
Description: 220 mg of ammonium sulfate were mixed thoroughly with 200 g of a loamy sandy soil whose moisture content had been brought to 50% of the maximum water capacity. The active ingredients, dissolved in 0.2 ml of acetone, were then added in amounts of 1 ppm, based on moist soil. After careful, thorough mixing, and evaporation of the acetone, the soil samples were incubated for 28 days at 21° C., together with the controls without added active ingredient, 1 liter glass vessels covered with aluminum foil to avoid loss of water.
2.5 g of each of the soil samples were then introduced into 100 ml conical flasks, and 22.5 ml of a 0.1N sodium sulfate solution was added. The flask was shaken for 30 minutes, after which the mixture was filtered, and 2.5 ml samples of the soil extracts were mixed with […] of distilled water. To detect the ammonium ions still present in the soil extract, 1.25 ml of Nessler reagent were then added, and the mixture was shaken thoroughly. The color changes were then measured photometrically at a wavelength of 420 nm. The amounts of ammonium sulfate still present in the soil samples were then determined with reference to standard curves obtained by a measurement of solutions containing known amounts of ammonium sulfate. The percentage inhibition of nitrification in the treated soil samples compared with the untreated soil samples (to which only ammonium sulfate had been added) was calculated using the following formula: [formula] a=nitrification rate for ammonium sulfate b=nitrification rate for ammonium sulfate+nitrification inhibitor

Row | Structure (SMILES) | % inhibition of nitrification 4 weeks after the addition of 1 ppm of active ingredient to the soil
1 | Cc1ncn(C(=O)Nc2ccccc2)c1Cl [Example 3, 1-N-phenylcarbamyl-4-methyl-5-chloroimidazole] | 85%
2 | Cc1ncn(C(=O)Nc2ccc(Cl)c(Cl)c2)c1Cl [Example 4, 1-N-(3,4-dichlorophenyl)-carbamyl-4-methyl-5-chloroimidazole] | 71%
3 | CNC(=O)n1cnc(C)c1Cl [Example 1, 1-N-methylcarbamyl-4-methyl-5-chloroimidazole] | 94%
4 | Cc1ccn(C(=O)NOc2ccccc2)n1 [A, 1-phenoxycarbamyl-3-methylpyrazole, reference compound] | 69%
